# Paper PMC6225228, “Design, Synthesis and Evaluation of N-pyrazinylbenzamides as Potential Antimycobacterial Agents” (Molecules : A Journal of Synthetic Chemistry and Natural …, 2018)
# Read-outs that look alike come from different tables or passages of the source.
# Legend:
# [1] = system: Mycobacterium tuberculosis H37Rv CNCTC My 331/88 (ATCC 27294); assay: Antimycobacterial microdilution MABA, M. tuberculosis; type: cell-based; conditions: for MIC: Mycobacterium tuberculosis, read-out: Mtb H37Rv ATCC 27294 MIC, Middlebrook 7H9 with OADC growth supplement, pH = 6.6, MABA
# [2] = system: M. kansasii CNCTC My 235/80 (ATCC 12478); assay: Antimycobacterial microdilution MABA, M. kansasii; type: cell-based, Mycobacterium kansasii; conditions: for MIC: Mycobacterium kansasii, ATCC12478, pH 6.6, read-out: M. kans. ATCC 12478 MIC, Middlebrook 7H9 with OADC, pH 6.6, MABA
# [3] = system: M. avium ssp. avium CNCTC My 80/72 (ATCC 15769); assay: Antimycobacterial microdilution MABA, M. avium; type: cell-based, Mycobacterium avium; conditions: for M. avium ATCC 15769 MIC: Middlebrook 7H9 with OADC, pH 6.6, MABA; for MIC: Mycobacterium avium, ATCC15769, pH 6.6, read-out: M. avium ATCC 15769 MIC
# [4] = system: Mycobacterium smegmatis CCM 4622 (ATCC 607); assay: Antimycobacterial microdilution, M. smegmatis; type: cell-based; conditions: Mycolicibacterium smegmatis, read-out: M. smeg. ATCC 607 MIC
# [5] = system: Staphylococcus aureus CCM 4516/08; assay: Antibacterial microdilution broth, SA; type: cell-based; conditions: Staphylococcus aureus
# [6] = system: Staphylococcus aureus H 5996/08 methicillin resistant; assay: microbe, parasite or virus in culture; type: cell-based; conditions: Staphylococcus aureus, MRSA, read-out: MIC MRSA
# [7] = system: Staphylococcus epidermidis H 6966/08; assay: Antibacterial microdilution broth, SE; type: cell-based; conditions: Staphylococcus epidermidis, read-out: MIC SE
# [8] = system: Enterococcus sp. J 14365/08; assay: Antibacterial microdilution broth, EF; type: cell-based; conditions: Enterococcus, read-out: MIC EF
# [9] = system: Escherichia coli CCM 4517; assay: Antibacterial microdilution broth, EC; type: cell-based; conditions: Escherichia coli, read-out: MIC EC
# [10] = system: Pseudomonas aeruginosa CCM 1961; assay: Antibacterial microdilution broth, PA; type: cell-based; conditions: Pseudomonas aeruginosa, read-out: MIC PA
# [11] = system: Candida albicans ATCC 44859; assay: Antifungal microdilution broth, CA; type: cell-based; conditions: Candida albicans, read-out: MIC CA
# Candida tropicalis 156 = assay: Antifungal microdilution broth, CT; type: cell-based; conditions: read-out: MIC CT
# Candida krusei E28 = assay: Antifungal microdilution broth, CK; type: cell-based; conditions: Pichia kudriavzevii, read-out: MIC CK
# Candida glabrata 20/I = assay: Antifungal microdilution broth, CG; type: cell-based; conditions: Nakaseomyces glabratus, 20/I, read-out: MIC CG
# Trichosporon asahii 1188 = assay: Antifungal microdilution broth, TA; type: cell-based; conditions: read-out: MIC TA
# [12] = system: Aspergillus fumigatus 231; assay: Antifungal microdilution broth, AF; type: cell-based; conditions: read-out: MIC AF
# [13] = system: Lichtheimia corymbifera 272; assay: Antifungal microdilution broth, LC; type: cell-based; conditions: read-out: MIC LC
# [14] = system: Trichophyton interdigitale 445; assay: Antifungal microdilution broth, TI; type: cell-based; conditions: read-out: MIC TI
# [15] = CCM4516, 24 h, read-out: MIC SA, 24 h
# [16] = CCM4516, 48 h, read-out: MIC SA, 48 h
# [17] = Trichosporon asahii, 1188, 24 h
# [18] = Trichosporon asahii, 1188, 48 h
# [19] = Aspergillus fumigatus, 231, 24 h
# [20] = Aspergillus fumigatus, 231, 48 h
# [21] = Lichtheimia corymbifera, 272, 24 h
# [22] = Lichtheimia corymbifera, 272, 48 h
# [23] = Trichophyton interdigitale, 445, 72 h
# [24] = Trichophyton interdigitale, 445, 120 h
SMILES,MIC [1],MIC [2],MIC [3],MIC [4],"MIC [5, 15]","MIC [5, 16]",MIC ([6]; 24 h),MIC ([6]; 48 h),"MIC ([7]; H6966/08, 24 h)","MIC ([7]; H6966/08, 48 h)","MIC ([8]; SP.J14365/08, 24 h)","MIC ([8]; SP.J14365/08, 48 h)","MIC ([9]; CCM4517, 24 h)","MIC ([9]; CCM4517, 48 h)","MIC ([10]; CCM1961, 72 h)","MIC ([10]; CCM1961, 120 h)","MIC ([11]; ATCC44859, 24 h)","MIC ([11]; ATCC44859, 48 h)","MIC (Candida tropicalis 156; Candida tropicalis, 156, 24 h)","MIC (Candida tropicalis 156; Candida tropicalis, 156, 48 h)",other results
O=C(Nc1cnccn1)c1ccc(Cl)cc1 [Compound 1l],50 µg/mL,50 µg/mL,> 100 µg/mL,≥ 500 µg/mL,> 125 µM,> 125 µM,> 125 µM,> 125 µM,> 125 µM,> 125 µM,> 125 µM,> 125 µM,> 125 µM,> 125 µM,> 125 µM,> 125 µM,> 125 µM,> 125 µM,> 125 µM,> 125 µM,"M. avium ATCC 15769 MIC [3]: >100 µg/mL; MIC (Candida krusei E28; E28, 24 h): > 125 µM; MIC (Candida krusei E28; E28, 48 h): > 125 µM; MIC (Candida glabrata 20/I; 24 h): > 125 µM; MIC (Candida glabrata 20/I; 48 h): > 125 µM; MIC (Trichosporon asahii 1188; [17]): > 125 µM; MIC (Trichosporon asahii 1188; [18]): > 125 µM; MIC [12, 19]: > 125 µM; MIC [12, 20]: > 125 µM; MIC [13, 21]: > 125 µM; MIC [13, 22]: > 125 µM; MIC [14, 23]: > 125 µM; MIC [14, 24]: > 125 µM; melting point: 182.6 to 184.3 °C"
CC(=O)Oc1cccc(C(=O)Nc2cnccn2)c1 [Compound 1c-Ac],> 100 µg/mL,> 100 µg/mL,> 100 µg/mL,≥ 500 µg/mL,> 500 µM,> 500 µM,> 500 µM,> 500 µM,> 500 µM,> 500 µM,> 500 µM,> 500 µM,> 500 µM,> 500 µM,> 500 µM,> 500 µM,> 500 µM,> 500 µM,> 500 µM,> 500 µM,"MIC (Candida krusei E28; E28, 24 h): > 500 µM; MIC (Candida krusei E28; E28, 48 h): > 500 µM; MIC (Candida glabrata 20/I; 24 h): > 500 µM; MIC (Candida glabrata 20/I; 48 h): > 500 µM; MIC (Trichosporon asahii 1188; [17]): > 500 µM; MIC (Trichosporon asahii 1188; [18]): > 500 µM; MIC [12, 19]: > 500 µM; MIC [12, 20]: > 500 µM; MIC [13, 21]: > 500 µM; MIC [13, 22]: > 500 µM; MIC [14, 23]: > 500 µM; MIC [14, 24]: > 500 µM; melting point: 168.4 to 169.5 °C"
O=C(Nc1cncc(Cl)n1)c1cccc(Cl)c1 [Compound 3k],> 100 µg/mL,> 100 µg/mL,> 100 µg/mL,≥ 500 µg/mL,> 125 µM,> 125 µM,> 125 µM,> 125 µM,> 125 µM,> 125 µM,> 125 µM,> 125 µM,> 125 µM,> 125 µM,> 125 µM,> 125 µM,> 125 µM,> 125 µM,> 125 µM,> 125 µM,"Mtb H37Rv ATCC 27294 MIC ([1]; Middlebrook 7H9 with OADC growth supplement, pH = 6.6, MABA): >100 µg/mL; MIC (Candida krusei E28; E28, 24 h): > 125 µM; MIC (Candida krusei E28; E28, 48 h): > 125 µM; MIC (Candida glabrata 20/I; 24 h): > 125 µM; MIC (Candida glabrata 20/I; 48 h): > 125 µM; MIC (Trichosporon asahii 1188; [17]): > 125 µM; MIC (Trichosporon asahii 1188; [18]): > 125 µM; MIC [12, 19]: > 125 µM; MIC [12, 20]: > 125 µM; MIC [13, 21]: > 125 µM; MIC [13, 22]: > 125 µM; MIC [14, 23]: > 125 µM; MIC [14, 24]: > 125 µM; melting point: 166 to 167.1 °C"
O=C(c1ccc(Cl)cc1)N(C(=O)c1ccc(Cl)cc1)c1cnccn1 [Compound 1l-SP],50 µg/mL,> 100 µg/mL,> 100 µg/mL,≥ 500 µg/mL,> 125 µM,> 125 µM,> 125 µM,> 125 µM,> 125 µM,> 125 µM,> 125 µM,> 125 µM,> 125 µM,> 125 µM,> 125 µM,> 125 µM,> 125 µM,> 125 µM,> 125 µM,> 125 µM,"M. kans. ATCC 12478 MIC ([2]; Middlebrook 7H9 with OADC, pH 6.6, MABA): >100 µg/mL; M. avium ATCC 15769 MIC [3]: >100 µg/mL; MIC (Candida krusei E28; E28, 24 h): > 125 µM; MIC (Candida krusei E28; E28, 48 h): > 125 µM; MIC (Candida glabrata 20/I; 24 h): > 125 µM; MIC (Candida glabrata 20/I; 48 h): > 125 µM; MIC (Trichosporon asahii 1188; [17]): > 125 µM; MIC (Trichosporon asahii 1188; [18]): > 125 µM; MIC [12, 19]: > 125 µM; MIC [12, 20]: > 125 µM; MIC [13, 21]: > 125 µM; MIC [13, 22]: > 125 µM; MIC [14, 23]: > 125 µM; MIC [14, 24]: > 125 µM; melting point: 153.1 to 153.8 °C"
